Calls of active or inactive are those of the source. No cut-off for these calls is given here.
Assays:
[1] = human, microsomes, 1 µM
[2] = tested on: Mus musculus; assay: Suppression of human recombinant tau-induced memory impairment in C57Bl/6 mouse model of oligomeric tau infusion model assessed as attenuation of deficits in spatial and associative memory performance at 5 mg/kg, ip dosed 20 mins prior to start of testing by contextual fear conditioning assay; type: functional, organism-based
[3] = target: Voltage-gated L-type calcium channel (Rattus norvegicus, UniProt P22002+Q02485+P27732); assay: Inhibition of rat L-type calcium channel at 10 uM; type: protein assay
[4] = tested on: Mus musculus; assay: Suppression of cognitive dysfunction in transgenic rTg4510 mouse model assessed as prevention of hippocampal tissue loss at […], po dosed every other day for 45 days; type: functional, organism-based
[5] = organism: Rattus norvegicus; assay: Inhibition of rat potassium channel at 10 uM
[6] = target: Alpha-1A adrenergic receptor (Homo sapiens) (UniProt P35348); assay: Inhibition of human adrenergic alpha1a receptor at 10 uM
Alpha-1A adrenergic receptor (Homo sapiens), sequence (P35348 whole entry): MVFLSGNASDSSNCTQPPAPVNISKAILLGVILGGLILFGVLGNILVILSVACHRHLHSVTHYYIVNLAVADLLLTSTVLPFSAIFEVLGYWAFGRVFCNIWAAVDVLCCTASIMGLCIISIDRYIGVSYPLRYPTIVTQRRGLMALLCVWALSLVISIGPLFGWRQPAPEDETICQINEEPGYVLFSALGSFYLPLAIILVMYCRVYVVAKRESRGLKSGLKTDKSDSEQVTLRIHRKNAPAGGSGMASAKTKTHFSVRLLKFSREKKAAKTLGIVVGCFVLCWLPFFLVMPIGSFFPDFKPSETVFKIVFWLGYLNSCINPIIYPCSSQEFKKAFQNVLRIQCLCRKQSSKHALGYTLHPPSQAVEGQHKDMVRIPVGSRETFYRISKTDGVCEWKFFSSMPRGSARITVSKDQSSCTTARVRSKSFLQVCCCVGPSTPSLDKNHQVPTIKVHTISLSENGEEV

[7] = target: 5-hydroxytryptamine receptor 2B (Homo sapiens) (UniProt P41595); assay: Inhibition of human 5HT2B receptor at 10 uM
[8] = target: Cytochrome P450 2C19 (Homo sapiens, UniProt P33261); assay: Inhibition of human recombinant CYP2C19 at 10 uM incubated for 10 to 30 mins in presence of CYP-specific probe CEC substrate by LC-MS/MS analysis; type: ADME; settings: recombinant enzyme
[9] = target: GABA-A receptor; anion channel (Rattus norvegicus) (UniProt O09028+P15431+P18506+P18508+P19969+P20236+P23574+P23576+P28471+P28473+P30191+P62813+P63079+P63138+Q91ZM7+Q9ES14); assay: Inhibition of rat GABAA receptor at 10 uM; type: protein-complex assay
[10] = in vivo; settings: mouse, po
Description: Toxicity in orally dosed wild type mouse dosed daily for 14 days

[11] = target: Cytochrome P450 1A2 (Homo sapiens, UniProt P05177); assay: Inhibition of human recombinant CYP1A2 at 10 uM incubated for 10 to 30 mins in presence of CYP-specific probe CEC substrate by LC-MS/MS analysis; type: ADME; settings: recombinant enzyme
[12] = target: T1, Cytochrome P450 3A4 (Homo sapiens, UniProt P08684); assay: Inhibition of human recombinant CYP3A4 at 10 uM incubated for 10 to 30 mins in presence of CYP-specific probe BzRes substrate by LC-MS/MS analysis; type: ADME; settings: recombinant enzyme
T1 sequence (P08684 whole entry): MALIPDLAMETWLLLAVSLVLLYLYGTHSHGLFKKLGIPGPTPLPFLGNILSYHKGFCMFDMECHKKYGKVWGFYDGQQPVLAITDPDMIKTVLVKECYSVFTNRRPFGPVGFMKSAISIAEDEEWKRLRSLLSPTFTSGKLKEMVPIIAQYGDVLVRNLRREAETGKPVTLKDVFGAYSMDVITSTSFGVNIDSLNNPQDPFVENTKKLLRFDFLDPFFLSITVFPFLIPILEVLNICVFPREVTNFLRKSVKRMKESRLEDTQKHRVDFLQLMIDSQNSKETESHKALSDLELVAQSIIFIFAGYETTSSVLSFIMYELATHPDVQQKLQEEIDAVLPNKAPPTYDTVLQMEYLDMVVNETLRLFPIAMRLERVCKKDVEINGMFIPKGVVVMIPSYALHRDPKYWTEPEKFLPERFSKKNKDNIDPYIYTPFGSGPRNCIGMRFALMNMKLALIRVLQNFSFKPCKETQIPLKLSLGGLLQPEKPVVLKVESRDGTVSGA

[13] = target: 5-hydroxytryptamine receptor 1A (Homo sapiens) (UniProt P08908); assay: Inhibition of human 5HT1A receptor at 10 uM
[14] = target: Adenosine receptor A2a (Homo sapiens) (UniProt P29274); assay: Inhibition of human adenosine A2A receptor at 10 uM
[15] = target: Cytochrome P450 2B6 (Homo sapiens, UniProt P20813); assay: Inhibition of human recombinant CYP2B6 at 10 uM incubated for 10 to 30 mins in presence of CYP-specific probe EFC substrate by LC-MS/MS analysis; type: ADME; settings: recombinant enzyme
Cytochrome P450 2B6, sequence (P20813 whole entry): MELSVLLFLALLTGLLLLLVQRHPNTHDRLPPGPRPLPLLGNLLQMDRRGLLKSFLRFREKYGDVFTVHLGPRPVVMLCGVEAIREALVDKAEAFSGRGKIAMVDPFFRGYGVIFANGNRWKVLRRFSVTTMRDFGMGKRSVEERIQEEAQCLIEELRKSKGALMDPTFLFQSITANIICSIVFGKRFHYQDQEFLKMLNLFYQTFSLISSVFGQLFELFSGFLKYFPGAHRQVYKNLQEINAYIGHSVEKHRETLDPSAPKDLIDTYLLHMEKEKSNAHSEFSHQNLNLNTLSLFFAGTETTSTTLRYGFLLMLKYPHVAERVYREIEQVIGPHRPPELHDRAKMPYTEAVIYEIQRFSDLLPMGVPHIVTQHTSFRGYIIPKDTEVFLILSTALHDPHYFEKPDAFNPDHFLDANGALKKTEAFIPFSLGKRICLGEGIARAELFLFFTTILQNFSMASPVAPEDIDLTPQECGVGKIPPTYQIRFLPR

[16] = target: Sodium-dependent dopamine transporter (Homo sapiens) (UniProt Q01959); assay: Inhibition of human dopamine transporter at 10 uM
[17] = target: Muscarinic acetylcholine receptor M1 (Homo sapiens) (UniProt P11229); assay: Inhibition of human muscarinic M1 receptor at 10 uM
[18] = Toxicity in wild type mouse assessed as induction of abnormalities in liver at 250 mg/kg; type: organism-based; settings: in vivo
[19] = Permeability in MDCK cells expressing BCRP at 5 uM by LC-MS/MS analysis; type: ADME, cell-based, Canis lupus familiaris; settings: dog
[20] = target: 5-hydroxytryptamine receptor 1B (Homo sapiens) (UniProt P28222); assay: Inhibition of human 5HT1B receptor at 10 uM
[21] = target: Glutamate NMDA receptor (Rattus norvegicus) (UniProt P35439+Q00959+Q00960+Q00961+Q62645+Q8VHN2+Q9R1M7); assay: Inhibition of rat NMDA receptor at 10 uM; type: protein-complex assay
[22] = target: Androgen receptor (Homo sapiens) (UniProt P10275); assay: Inhibition of human androgen receptor at 10 uM
[23] = target: Amine oxidase [flavin-containing] B (Homo sapiens, UniProt P27338); assay: Inhibition of human MAOB at 10 uM
[24] = target: T1, Cytochrome P450 3A4; assay: Inhibition of human recombinant CYP3A4 at 10 uM incubated for 10 to 30 mins in presence of CYP-specific probe BFC substrate by LC-MS/MS analysis; type: ADME; settings: recombinant enzyme
[25] = target: cGMP-inhibited 3',5'-cyclic phosphodiesterase 3A (Homo sapiens, UniProt Q14432); assay: Inhibition of human PDE3A at 10 uM
[26] = target: Glucocorticoid receptor (Homo sapiens) (UniProt P04150); assay: Inhibition of human glucocorticoid receptor at 10 uM
[27] = target: Sodium-dependent serotonin transporter (Homo sapiens) (UniProt P31645); assay: Inhibition of human serotonin transporter at 10 uM
[28] = tested on: Mus musculus; assay: Suppression of cognitive dysfunction in transgenic rTg4510 mouse model assessed as reduction in errors at […], po dosed every other day for 45 days by radial arm water maze test; type: functional, organism-based
[29] = target: Muscarinic acetylcholine receptor M3 (Homo sapiens) (UniProt P20309); assay: Inhibition of human muscarinic M3 receptor at 10 uM
[30] = in vitro; settings: Beagle, dog, hepatocytes
Description: Half life in Beagle dog hepatocytes at 1 uM by LC-MS/MS analysis

[31] = target: D(2) dopamine receptor (Homo sapiens) (UniProt P14416); assay: Inhibition of human D2S receptor at 10 uM
[32] = target: Delta-type opioid receptor (Homo sapiens) (UniProt P41143); assay: Inhibition of human OP1 receptor at 10 uM
Delta-type opioid receptor (Homo sapiens), sequence (P41143 whole entry): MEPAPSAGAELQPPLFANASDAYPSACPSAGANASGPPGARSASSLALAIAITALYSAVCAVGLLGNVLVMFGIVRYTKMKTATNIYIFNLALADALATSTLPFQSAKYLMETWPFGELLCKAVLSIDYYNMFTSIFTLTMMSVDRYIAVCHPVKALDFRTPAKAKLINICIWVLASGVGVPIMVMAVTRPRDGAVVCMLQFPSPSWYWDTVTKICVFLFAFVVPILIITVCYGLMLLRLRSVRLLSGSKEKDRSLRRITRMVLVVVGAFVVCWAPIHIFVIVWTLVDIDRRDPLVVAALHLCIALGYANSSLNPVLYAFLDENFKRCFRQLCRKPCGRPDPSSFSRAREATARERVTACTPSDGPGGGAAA

[33] = target: Prostaglandin G/H synthase 2 (Homo sapiens, UniProt P35354); assay: Inhibition of human COX2 at 10 uM
[34] = target: Mu-type opioid receptor (Homo sapiens) (UniProt P35372); assay: Inhibition of human OP3 receptor at 10 uM
[35] = Toxicity in APP/PS1 knock-in mouse assessed as induction of abnormalities in liver at 250 mg/kg; type: organism-based; settings: in vivo
[36] = tested on: Mus musculus; assay: Suppression of human recombinant tau-induced memory impairment in C57Bl/6 mouse model of oligomeric tau infusion model assessed as attenuation of deficits in spatial and associative memory performance at 5 mg/kg, ip dosed 20 mins prior to start of testing by radial arm water maze test; type: functional, organism-based
[37] = tested on: Mus musculus; assay: Effect on memory function in C57Bl/6 mouse at 5 mg/kg, ip dosed 20 mins prior to start of testing by radial arm water maze test; type: ADME, organism-based; settings: in vivo
[38] = target: Neuronal acetylcholine receptor; alpha4/beta2 (Homo sapiens) (UniProt P17787+P43681); assay: Inhibition of human alpha4beta2 nAChR receptor at 10 uM; type: protein-complex assay
[39] = target: Cytochrome P450 2C9 (Homo sapiens, UniProt P11712); assay: Inhibition of human recombinant CYP2C9 at 10 uM incubated for 10 to 30 mins in presence of CYP-specific probe MFC substrate by LC-MS/MS analysis; type: ADME; settings: recombinant enzyme
[40] = target: Cytochrome P450 2C8 (Homo sapiens, UniProt P10632); assay: Inhibition of human recombinant CYP2C8 at 10 uM incubated for 10 to 30 mins in presence of CYP-specific probe DBF substrate by LC-MS/MS analysis; type: ADME; settings: recombinant enzyme
Cytochrome P450 2C8, sequence (P10632 whole entry): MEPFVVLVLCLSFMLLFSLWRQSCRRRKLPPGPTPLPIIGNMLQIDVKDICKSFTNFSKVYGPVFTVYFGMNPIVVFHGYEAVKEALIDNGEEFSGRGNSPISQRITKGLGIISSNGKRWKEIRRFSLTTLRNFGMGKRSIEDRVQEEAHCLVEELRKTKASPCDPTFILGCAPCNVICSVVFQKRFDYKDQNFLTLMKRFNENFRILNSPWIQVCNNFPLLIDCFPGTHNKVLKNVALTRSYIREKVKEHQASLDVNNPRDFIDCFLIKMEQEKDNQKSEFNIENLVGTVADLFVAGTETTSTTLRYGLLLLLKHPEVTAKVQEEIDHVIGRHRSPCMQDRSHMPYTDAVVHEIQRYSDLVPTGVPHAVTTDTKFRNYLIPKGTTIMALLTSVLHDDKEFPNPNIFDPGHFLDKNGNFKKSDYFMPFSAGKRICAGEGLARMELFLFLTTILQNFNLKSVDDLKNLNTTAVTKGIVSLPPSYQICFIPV

[41] = target: Amine oxidase [flavin-containing] A (Rattus norvegicus, UniProt P21396); assay: Inhibition of rat MAOA at 10 uM
[42] = target: 5-hydroxytryptamine receptor 3A (Homo sapiens) (UniProt P46098); assay: Inhibition of human 5HT3 receptor at 10 uM
[43] = tested on: Mus musculus; assay: Suppression of cognitive dysfunction in transgenic rTg4510 mouse model assessed as prevention of cortical tissue loss at […], po dosed every other day for 45 days; type: functional, organism-based
[44] = target: Sodium-dependent noradrenaline transporter (Homo sapiens) (UniProt P23975); assay: Inhibition of human norepinephrine transporter at 10 uM
[45] = target: D(1A) dopamine receptor (Homo sapiens) (UniProt P21728); assay: Inhibition of human DRD1 receptor at 10 uM
[46] = tested on: Mus musculus; assay: Suppression of cognitive dysfunction in transgenic rTg4510 mouse model assessed as rescue of freezing deficit at […], po dosed every other day for 45 days by contextual fear conditioning assay; type: functional, organism-based
[47] = target: Cannabinoid receptor 2 (Homo sapiens) (UniProt P34972); assay: Inhibition of human CB2 receptor at 10 uM
[48] = target: Kappa-type opioid receptor (Homo sapiens) (UniProt P41145); assay: Inhibition of human OP2 receptor at 10 uM
[49] = target: Beta-2 adrenergic receptor (Homo sapiens) (UniProt P07550); assay: Inhibition of human adrenergic beta2 receptor at 10 uM
[50] = target: Prostaglandin G/H synthase 1 (Homo sapiens, UniProt P23219); assay: Inhibition of human COX1 at 10 uM
[51] = target: Alpha-2A adrenergic receptor (Homo sapiens) (UniProt P08913); assay: Inhibition of human adrenergic alpha2a receptor at 10 uM
Alpha-2A adrenergic receptor (Homo sapiens), sequence (P08913 whole entry): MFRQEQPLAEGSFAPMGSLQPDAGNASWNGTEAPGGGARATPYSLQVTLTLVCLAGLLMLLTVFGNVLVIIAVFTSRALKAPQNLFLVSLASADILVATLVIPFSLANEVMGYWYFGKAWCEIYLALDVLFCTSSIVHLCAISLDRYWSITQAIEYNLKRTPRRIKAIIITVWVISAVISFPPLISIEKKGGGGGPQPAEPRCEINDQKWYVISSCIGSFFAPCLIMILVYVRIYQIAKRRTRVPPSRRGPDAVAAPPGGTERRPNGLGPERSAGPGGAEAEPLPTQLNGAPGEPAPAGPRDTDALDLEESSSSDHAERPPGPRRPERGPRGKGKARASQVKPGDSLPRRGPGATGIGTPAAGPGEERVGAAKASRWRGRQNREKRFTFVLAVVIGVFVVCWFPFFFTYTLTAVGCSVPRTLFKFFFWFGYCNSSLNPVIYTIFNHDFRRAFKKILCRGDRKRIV

[52] = target: Acetylcholinesterase (Homo sapiens, UniProt P22303); assay: Inhibition of human acetyl cholinesterase at 10 uM
[53] = target: Cannabinoid receptor 1 (Homo sapiens) (UniProt P21554); assay: Inhibition of human CB1 receptor at 10 uM
[54] = target: 5-hydroxytryptamine receptor 2A (Homo sapiens) (UniProt P28223); assay: Inhibition of human 5HT2A receptor at 10 uM
5-hydroxytryptamine receptor 2A (Homo sapiens), sequence (P28223 whole entry): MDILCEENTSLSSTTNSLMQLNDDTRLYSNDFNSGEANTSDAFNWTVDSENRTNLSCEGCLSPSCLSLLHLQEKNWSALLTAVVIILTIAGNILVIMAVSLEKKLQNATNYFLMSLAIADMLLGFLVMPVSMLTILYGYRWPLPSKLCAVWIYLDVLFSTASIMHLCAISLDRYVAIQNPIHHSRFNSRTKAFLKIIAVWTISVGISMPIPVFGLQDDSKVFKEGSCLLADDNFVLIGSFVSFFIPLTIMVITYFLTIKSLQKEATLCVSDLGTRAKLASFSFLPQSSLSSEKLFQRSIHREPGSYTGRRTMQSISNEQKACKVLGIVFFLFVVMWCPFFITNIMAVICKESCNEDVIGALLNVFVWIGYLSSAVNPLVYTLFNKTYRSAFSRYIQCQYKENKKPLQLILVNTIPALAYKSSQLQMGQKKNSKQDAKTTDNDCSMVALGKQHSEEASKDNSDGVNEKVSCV

[55] = target: Vasopressin V1a receptor (Homo sapiens) (UniProt P37288); assay: Inhibition of human V1A receptor at 10 uM
[56] = Permeability in human Caco2 cells at 5 uM by LC-MS/MS analysis; type: ADME, cell-based; settings: caco-2, 5 µM
[57] = organism: Rattus norvegicus; assay: Inhibition of rat sodium sodium channel at 10 uM
[58] = in vitro; settings: human, hepatocytes
Description: Half life in human hepatocytes at 1 uM by LC-MS/MS analysis

[59] = target: Beta-1 adrenergic receptor (Homo sapiens) (UniProt P08588); assay: Inhibition of human adrenergic beta1 receptor at 10 uM
Beta-1 adrenergic receptor (Homo sapiens), sequence (P08588 whole entry, looked up): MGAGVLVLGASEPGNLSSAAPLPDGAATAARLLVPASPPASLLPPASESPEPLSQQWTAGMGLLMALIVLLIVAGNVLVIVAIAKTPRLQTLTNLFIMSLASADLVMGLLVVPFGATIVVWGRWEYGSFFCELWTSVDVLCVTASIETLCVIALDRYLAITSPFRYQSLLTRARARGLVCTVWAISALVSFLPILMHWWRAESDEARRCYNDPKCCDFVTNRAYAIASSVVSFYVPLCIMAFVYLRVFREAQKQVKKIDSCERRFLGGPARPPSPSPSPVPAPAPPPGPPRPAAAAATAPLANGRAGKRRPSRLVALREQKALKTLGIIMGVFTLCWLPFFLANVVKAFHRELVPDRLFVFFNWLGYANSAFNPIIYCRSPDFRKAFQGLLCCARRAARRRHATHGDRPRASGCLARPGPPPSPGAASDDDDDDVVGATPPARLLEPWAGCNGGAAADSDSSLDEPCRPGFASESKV

[60] = target: Histamine H2 receptor (Homo sapiens) (UniProt P25021); assay: Inhibition of human histamine H2 receptor at 10 uM
[61] = target: Cytochrome P450 2D6 (Homo sapiens, UniProt P10635); assay: Inhibition of human recombinant CYP2D6 at 10 uM incubated for 10 to 30 mins in presence of CYP-specific probe MFC substrate by LC-MS/MS analysis; type: ADME; settings: recombinant enzyme
[62] = target: Histamine H1 receptor (Homo sapiens) (UniProt P35367); assay: Inhibition of human histamine H1 receptor at 10 uM
Histamine H1 receptor (Homo sapiens), sequence (P35367 whole entry): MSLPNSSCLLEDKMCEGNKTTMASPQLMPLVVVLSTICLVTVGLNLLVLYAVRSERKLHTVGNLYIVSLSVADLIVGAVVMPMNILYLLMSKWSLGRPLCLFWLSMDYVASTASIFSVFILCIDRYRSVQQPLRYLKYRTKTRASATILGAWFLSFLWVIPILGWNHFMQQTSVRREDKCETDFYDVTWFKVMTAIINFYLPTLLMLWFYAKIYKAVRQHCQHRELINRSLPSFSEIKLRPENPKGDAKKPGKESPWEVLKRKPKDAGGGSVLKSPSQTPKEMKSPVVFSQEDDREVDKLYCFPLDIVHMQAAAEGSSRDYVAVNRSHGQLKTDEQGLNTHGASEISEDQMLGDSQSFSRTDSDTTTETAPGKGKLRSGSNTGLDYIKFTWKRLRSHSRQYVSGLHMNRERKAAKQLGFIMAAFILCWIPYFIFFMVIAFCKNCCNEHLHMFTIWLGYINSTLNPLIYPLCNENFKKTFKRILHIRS

[63] = target: 3',5'-cyclic-AMP phosphodiesterase 4D (Homo sapiens) (UniProt Q08499); assay: Inhibition of human PDE4D2 at 10 uM
[64] = target: Cholecystokinin receptor type A (Homo sapiens) (UniProt P32238); assay: Inhibition of human CCK1 receptor at 10 uM
Cholecystokinin receptor type A (Homo sapiens), sequence (P32238 whole entry): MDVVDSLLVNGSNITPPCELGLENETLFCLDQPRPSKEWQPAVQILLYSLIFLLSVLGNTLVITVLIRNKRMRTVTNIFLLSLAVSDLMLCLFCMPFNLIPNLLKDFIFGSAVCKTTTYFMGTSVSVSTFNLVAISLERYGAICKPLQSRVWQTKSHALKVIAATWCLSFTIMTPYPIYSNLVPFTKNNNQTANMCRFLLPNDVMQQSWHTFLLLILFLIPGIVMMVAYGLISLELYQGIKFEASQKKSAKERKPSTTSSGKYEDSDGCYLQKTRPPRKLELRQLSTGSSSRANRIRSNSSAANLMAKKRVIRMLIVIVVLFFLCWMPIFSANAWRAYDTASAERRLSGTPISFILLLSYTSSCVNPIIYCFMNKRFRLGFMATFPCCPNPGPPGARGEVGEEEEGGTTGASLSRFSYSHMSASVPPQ

In the case of `c1ccc2cc(-c3nnc(N4CCCCC4)cc3-c3ccncc3)ccc2c1`, the t1/2 [1] is reported as 0.1 h.
For `c1ccc2cc(-c3nnc(N4CCNCC4)cc3-c3ccncc3)ccc2c1`, the t1/2 [1] was greater than 1 h.
For `CN1CCN(c2cc(-c3ccncc3)c(-c3ccc4ccccc4c3)nn2)CC1` [MW-150], the Activity [2] was “Active”, the “inhibition (INH)” value [3] was “Not Active” and the Activity [4] was “inactive”. For the same compound, the inhibition [5] was “inactive”, the inhibition [6] was “inactive” and the inhibition [7] was “inactive”. For the same compound, the “inhibition (INH)” value [8] was “Not Active”, the inhibition [9] was “inactive” and the NOAEL at 336 h [10] was 125 mg/kg. The “inhibition (INH)” value [11] was “Not Active”, the “inhibition (INH)” value [12] was “Not Active” and the inhibition [13] was “inactive”. The inhibition [14] was “inactive”, the “inhibition (INH)” value [15] was “Not Active” and the inhibition [16] was “inactive”. For the same compound, the inhibition [17] was “inactive”, the Activity [18] was “Non-Toxic” and the permeability [19] was “Permeable”. The inhibition [20] was “inactive”, the inhibition [21] was “inactive” and the inhibition [22] was “inactive”. For the same compound, the “inhibition (INH)” value [23] was “Not Active”, the “inhibition (INH)” value [24] was “Not Active” and the “inhibition (INH)” value [25] was “Not Active”. For the same compound, the inhibition [26] was “inactive”, the inhibition [27] was “inactive” and the Activity [28] was “Active”. For the same compound, the inhibition [29] was “inactive”, the half-life at 1 µM [30] was greater than 2 h and the inhibition [31] was “inactive”. The inhibition [32] was “inactive”, the “inhibition (INH)” value [33] was “Not Active” and the inhibition [34] was “inactive”. For the same compound, the Activity [35] was “Non-Toxic”, the Activity [36] was “Active” and the Activity [37] was “Non-Toxic”. For the same compound, the inhibition [38] was “inactive”, the “inhibition (INH)” value [39] was “Not Active” and the “inhibition (INH)” value [40] was “Not Active”. The “inhibition (INH)” value [41] was “Not Active”, the inhibition [42] was “inactive” and the Activity [43] was “Active”. The inhibition [44] was “inactive”, the inhibition [45] was “inactive” and the Activity [46] was “Active”. For the same compound, the inhibition [47] was “inactive”, the inhibition [48] was “inactive” and the inhibition [49] was “inactive”. For the same compound, the “inhibition (INH)” value [50] was “Not Active”, the inhibition [51] was “inactive” and the “inhibition (INH)” value [52] was “Not Active”. For the same compound, the inhibition [53] was “inactive”, the inhibition [54] was “inactive” and the inhibition [55] was “inactive”. The permeability [56] was “Permeable”, the inhibition [57] was “inactive” and the half-life at 1 µM [58] was greater than 2 h. The inhibition [59] was “inactive”, the inhibition [60] was “inactive” and the “inhibition (INH)” value [61] was “Not Active”. For the same compound, the inhibition [62] was “inactive”, the inhibition [63] was “inactive” and the inhibition [64] was “inactive”.

— ChEMBL document CHEMBL4602604, “A Selective and Brain Penetrant p38αMAPK Inhibitor Candidate for Neurologic and Neuropsychiatric Disorders That Attenuates Neuroinflammation and Cognitive Dysfunction” (J Med Chem, 2019)
